In patent US10774074B2, “2-(1-heteroarylpiperazin-4-yl)methyl-1,4-benzodioxane derivatives as alpha2C antagonists” (ORION CORPORATION, priority 2015, dated 2020):
Counter-ions that a name gives are not always drawn.

Tests used:
[1] = target: T1, human alpha2A receptors (Homo sapiens, UniProt P08913); assay: Determination of alpha2A antagonistic activity in vitro (FLIPR calcium assay, CHO cells); format: cell-based; conditions: for Kb: Kb calculated with the Cheng-Prusoff equation from IC50, adrenaline as agonist, CHO cells, human alpha2A, read-out: Alpha 2A Adrenaline Kb; for IC50: antagonism of adrenaline stimulation, CHO cells stably transfected with human alpha2A receptor and Gα16, intracellular calcium (FLIPR), read-out: Alpha 2A Adrenaline IC50
T1 construct: host or cells: CHO cells, cotransfected with pCEP-Gα16
T1 sequence (P08913 1-465): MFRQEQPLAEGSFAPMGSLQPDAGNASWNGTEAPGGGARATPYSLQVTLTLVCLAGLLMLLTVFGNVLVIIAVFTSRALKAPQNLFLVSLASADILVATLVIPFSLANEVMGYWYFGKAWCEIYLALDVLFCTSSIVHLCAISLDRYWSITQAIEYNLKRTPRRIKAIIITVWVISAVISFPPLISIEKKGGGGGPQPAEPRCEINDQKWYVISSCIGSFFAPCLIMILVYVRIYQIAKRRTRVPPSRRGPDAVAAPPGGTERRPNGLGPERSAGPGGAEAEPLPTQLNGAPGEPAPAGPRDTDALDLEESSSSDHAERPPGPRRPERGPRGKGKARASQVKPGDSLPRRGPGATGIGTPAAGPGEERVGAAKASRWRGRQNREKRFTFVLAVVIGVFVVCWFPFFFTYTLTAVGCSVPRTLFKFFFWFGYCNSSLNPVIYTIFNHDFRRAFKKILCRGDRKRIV
Experimental: (§1) EXPERIMENT 1: Determination of alpha2A and alpha2C Antagonistic Activity In Vitro
(§2) Chinese hamster ovary (CHO) cells stably transfected with human alpha2A or alpha2C receptors (University of Turku, Finland) were cotransfected with the expression vector pCEP-Gα16 (Molecular Devices, CA, USA) were used in this experiment. The cells were maintained at 37° C. in a 5% CO2/95% air atmosphere. The cells were cultured in HAM F-12 medium supplemented with 10% FCS, 25 mM HEPES, 100 IU/ml penicillin, 100 µg/ml streptomycin, 500 μg/ml geneticin and 240 μg/ml hygromycin B. The cells were subcultured twice weekly with 0.25% trypsin and 1 mM EDTA. The subculture ratio was 1:5-1:20. The growth medium was changed every 2 or 3 days. All cell culture reagents were from Gibco. The day before the experiment the cells were plated into black-walled, clear bottom 384-well plates at a density of 10,000 cells/well.
(§3) The growth medium was removed and the cells were incubated with the test compounds and the FLIPR Calcium 6 Assay reagent (Molecular Devices, CA, USA) for 2 h at 37° C. in dark. The test compounds (concentrations in cells 100 pM-10 μM) were dissolved in Probenecid-Ringer consisting of 150 mM NaCl, 3 mM KCl, 1.2 mM MgCl2, 1 mM CaCl2, 5 mM glucose, 20 mM HEPES and 2.5 mM probenecid (pH 7.4 adjusted with 1.0 M NaOH). The osmolarity was adjusted to 322 milliosmoles with Osmostat® OM-6020 osmometer (DIC Kyoto Daiichi Kagagu Co. Ltd, Japan). […] All experiments were performed at 37° C. For agonism measurements the test compounds dissolved in Probenecid-Ringer were applied by FLIPR Tetra at 15 s time point. In order to determine antagonism, the cells were stimulated either with 100 nM adrenaline or noradrenaline and the test compounds were added to the cells 2 h before the experiment with the FLIPR Calcium 6 Assay reagent. […] Typically, there were four replicates at each concentration and six different dose levels. For example, if the number of plates from which results were obtained was three, 72 (4*6*3) wells were thus measured to construct dose-response relationship. The samples were excited at 485 nm and emission was detected at 525 nm with a 515 nm cut-off filter. The minimum fluorescence value subtracted from the maximum value for each well was used in the calculations. ScreenWorks version 4.0 software was used for analyzing the results. Fitting of the antagonist dose-response results was performed with the free Hill equation and the IC50 values were fitted with IDBS XE software using model 200: y=(A+(B/(1+((x/C)^D)))), where A is the curve maximum, B the curve minimum and C equals the EC50 value. D is slope factor (Hill). Kb was calculated with the Cheng-Prusoff equation Kb=A/((B/C)+1), where A is the IC50 of antagonist, B the concentration of agonist and C the EC50 of the agonist.

[2] = target: T2, human alpha2C receptors (Homo sapiens, UniProt P18825); assay: Determination of alpha2C antagonistic activity in vitro (FLIPR calcium assay, CHO cells); format: cell-based; conditions: for Kb: Kb calculated with the Cheng-Prusoff equation from IC50, adrenaline as agonist, CHO cells, human alpha2C, read-out: Alpha 2C Adrenaline Kb; for IC50: antagonism of adrenaline stimulation, CHO cells stably transfected with human alpha2C receptor and Gα16, intracellular calcium (FLIPR), read-out: Alpha 2C Adrenaline IC50
T2 construct: host or cells: CHO cells, cotransfected with pCEP-Gα16
T2 sequence (P18825 1-462): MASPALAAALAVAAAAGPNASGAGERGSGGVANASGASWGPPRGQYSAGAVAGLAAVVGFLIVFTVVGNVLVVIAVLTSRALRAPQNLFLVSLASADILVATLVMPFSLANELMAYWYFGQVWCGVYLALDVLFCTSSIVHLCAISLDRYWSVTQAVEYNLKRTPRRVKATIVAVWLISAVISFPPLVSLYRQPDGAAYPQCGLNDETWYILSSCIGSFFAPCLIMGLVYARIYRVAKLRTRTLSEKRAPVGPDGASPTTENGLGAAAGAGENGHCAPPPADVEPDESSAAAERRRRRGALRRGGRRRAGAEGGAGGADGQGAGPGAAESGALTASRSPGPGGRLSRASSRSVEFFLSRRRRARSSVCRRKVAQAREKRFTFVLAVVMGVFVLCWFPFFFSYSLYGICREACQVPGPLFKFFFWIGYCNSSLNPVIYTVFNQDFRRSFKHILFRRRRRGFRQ
Experimental: as §1, §2, §3

SMILES | Kb [1] [nM] | IC50 [1] [nM] | Kb [2] [nM] | IC50 [2] [nM]
O=C1OCCN1c1nsnc1N1CCN(C[C@H]2COc3ccccc3O2)CC1 [Compound of example 26, (S)-3-(4-(4-((2,3-Dihydrobenzo[b][1,4]dioxin-2-yl)methyl)piperazin-1-yl)-1,2,5-thiadiazol-3-yl)oxazolidin-2-one] | > 449 | > 10000 | 183 | 18.5
NC(=O)c1nsnc1N1CCN(C[C@H]2COc3ccccc3O2)CC1 [Compound of example 27, (S)-4-(4-((2,3-Dihydrobenzo[b][1,4]dioxin-2-yl)methyl)piperazin-1-yl)-1,2,5-thiadiazole-3-carboxamide] | > 449 | > 10000 | 1650 | 166
CN1CCN(c2nsnc2N2CCN(C[C@H]3COc4ccccc4O3)CC2)C1=O [Compound of example 28, (S)-1-(4-(4-((2,3-Dihydrobenzo[b][1,4]dioxin-2-yl)methyl)piperazin-1-yl)-1,2,5-thiadiazol-3-yl)-3-methylimidazolidin-2-one] | > 449 | > 10000 | 1070 | 108
CNC(=O)c1nsnc1N1CCN(C[C@H]2COc3ccccc3O2)CC1 [Compound of example 29, (S)-4-(4-((2,3-Dihydrobenzo[b][1,4]dioxin-2-yl)methyl)piperazin-1-yl)-N-methyl-1,2,5-thiadiazole-3-carboxamide hydrochloride] | > 449 | > 10000 | 4210 | 424
O=C1NCCN1c1nsnc1N1CCN(C[C@H]2COc3ccccc3O2)CC1 [Compound of example 30, (S)-1-(4-(4-((2,3-Dihydrobenzo[b][1,4]dioxin-2-yl)methyl)piperazin-1-yl)-1,2,5-thiadiazol-3-yl)imidazolidin-2-one] | > 449 | > 10000 | 0.527 | 0.054
Cc1nsc(N2CCN(C[C@H]3COc4ccccc4O3)CC2)c1N1CCCC1=O [Compound of example 31, (S)-1-(5-(4-((2,3-Dihydrobenzo[b][1,4]dioxin-2-yl)methyl)piperazin-1-yl)-3-methylisothiazol-4-yl)pyrrolidin-2-one] | > 449 | > 10000 | 1.66 | 0.17
CC(=O)c1nsnc1N1CCN(C[C@H]2COc3ccccc3O2)CC1 [Compound of example 33, (S)-1-(4-(4-((2,3-Dihydrobenzo[b][1,4]dioxin-2-yl)methyl)piperazin-1-yl)-1,2,5-thiadiazol-3-yl)ethanone] | > 449 | > 10000 | 401 | 40.4

Other lines, results leading:

Kb [1] [nM] | IC50 [1] [nM] | Kb [2] [nM] | IC50 [2] [nM] | SMILES
> 449 | > 10000 | 4210 | 424 | CC(=O)Nc1nsnc1N1CCN(C[C@H]2COc3ccccc3O2)CC1 [Compound of example 16, (S)—N-(4-(4-((2,3-Dihydrobenzo[b][1,4]dioxin-2-yl)methyl)piperazin-1-yl)-1,2,5-thiadiazol-3-yl)acetamide]
> 449 | > 10000 | < 0.1 | < 0.01 | CC1(C)CCN(c2nsnc2N2CCN(C[C@H]3COc4ccccc4O3)CC2)C1=O [Compound of example 17, (S)-1-(4-(4-((2,3-Dihydrobenzo[b][1,4]dioxin-2-yl)methyl)piperazin-1-yl)-1,2,5-thiadiazol-3-yl)-3,3-dimethylpyrrolidin-2-one]
233 | 5190 | 30.1 | 3.03 | c1cnc(Nc2nsnc2N2CCN(C[C@H]3COc4ccccc4O3)CC2)nc1 [Compound of example 18, (S)-4-(4-((2,3-Dihydrobenzo[b][1,4]dioxin-2-yl)methyl)piperazin-1-yl)-N-(pyrimidin-2-yl)-1,2,5-thiadiazol-3-amine]
459 | 10200 | < 0.1 | < 0.01 | c1ccc2c(c1)OC[C@H](CN1CCN(c3nsnc3Nc3ccncn3)CC1)O2 [Compound of example 19, (S)-4-(4-((2,3-Dihydrobenzo[b][1,4]dioxin-2-yl)methyl)piperazin-1-yl)-N-(pyrimidin-4-yl)-1,2,5-thiadiazol-3-amine]
405 | 9020 | 0.394 | 0.04 | O=C1CCCN1c1ncsc1N1CCN(C[C@H]2COc3ccccc3O2)CC1 [Compound of example 20, (S)-1-(5-(4-((2,3-Dihydrobenzo[b][1,4]dioxin-2-yl)methyl)piperazin-1-yl)thiazol-4-yl)pyrrolidin-2-one]
> 449 | > 10000 | 0.38 | 0.04 | CC1CCN(c2nsnc2N2CCN(C[C@H]3COc4ccccc4O3)CC2)C1=O (stereo partly drawn) [Compound of example 21, 1-(4-(4-(((S)-2,3-Dihydrobenzo[b][1,4]dioxin-2-yl)methyl)piperazin-1-yl)-1,2,5-thiadiazol-3-yl)-3-methylpyrrolidin-2-one]
> 449 | > 10000 | 1570 | 158 | c1ccc2c(c1)OC[C@H](CN1CCN(c3nncs3)CC1)O2 [Compound of example 22, (S)-2-(4-((2,3-Dihydrobenzo[b][1,4]dioxin-2-yl)methyl)piperazin-1-yl)-1,3,4-thiadiazole]
> 449 | > 10000 | 1350 | 136 | COCc1nc(N2CCN(C[C@H]3COc4ccccc4O3)CC2)no1 [Compound of example 23, (S)-3-(4-((2,3-Dihydrobenzo[b][1,4]dioxin-2-yl)methyl)piperazin-1-yl)-5-(methoxymethyl)-1,2,4-oxadiazole]
385 | 8570 | 0.546 | 0.055 | O=C1CCCN1c1nsnc1N1CCN(C[C@H]2COc3ccccc3O2)CC1 [Compound of example 24, (S)-1-(4-(4-((2,3-Dihydrobenzo[b][1,4]dioxin-2-yl)methyl)piperazin-1-yl)-1,2,5-thiadiazol-3-yl)pyrrolidin-2-one]
514 | 11500 | 28.4 | 2.86 | O=C1NCCN1c1nnc(N2CCN(C[C@H]3COc4ccccc4O3)CC2)s1 [Compound of example 25, (S)-1-(5-(4-((2,3-Dihydrobenzo[b][1,4]dioxin-2-yl)methyl)piperazin-1-yl)-1,3,4-thiadiazol-2-yl)imidazolidin-2-one]
